Values of other authors as cited in US20090081312A1, “PREVENTION AND TREATMENT OF ALVEOLAR OSTEITIS” (priority 2007, published 2009).

Test system: bacterial cell growth
Conditions: silver ion; B Gibbins, Ostomy Wound Management 2003

[Ag+] [silver ion, silver]
quantity sufficient to prevent bacterial cell growth: one
